The target in this assay is T1, Human AhR (Homo sapiens, UniProt P35869).
T1 construct: expressed in transfected cells
T1 sequence (P35869 11-848): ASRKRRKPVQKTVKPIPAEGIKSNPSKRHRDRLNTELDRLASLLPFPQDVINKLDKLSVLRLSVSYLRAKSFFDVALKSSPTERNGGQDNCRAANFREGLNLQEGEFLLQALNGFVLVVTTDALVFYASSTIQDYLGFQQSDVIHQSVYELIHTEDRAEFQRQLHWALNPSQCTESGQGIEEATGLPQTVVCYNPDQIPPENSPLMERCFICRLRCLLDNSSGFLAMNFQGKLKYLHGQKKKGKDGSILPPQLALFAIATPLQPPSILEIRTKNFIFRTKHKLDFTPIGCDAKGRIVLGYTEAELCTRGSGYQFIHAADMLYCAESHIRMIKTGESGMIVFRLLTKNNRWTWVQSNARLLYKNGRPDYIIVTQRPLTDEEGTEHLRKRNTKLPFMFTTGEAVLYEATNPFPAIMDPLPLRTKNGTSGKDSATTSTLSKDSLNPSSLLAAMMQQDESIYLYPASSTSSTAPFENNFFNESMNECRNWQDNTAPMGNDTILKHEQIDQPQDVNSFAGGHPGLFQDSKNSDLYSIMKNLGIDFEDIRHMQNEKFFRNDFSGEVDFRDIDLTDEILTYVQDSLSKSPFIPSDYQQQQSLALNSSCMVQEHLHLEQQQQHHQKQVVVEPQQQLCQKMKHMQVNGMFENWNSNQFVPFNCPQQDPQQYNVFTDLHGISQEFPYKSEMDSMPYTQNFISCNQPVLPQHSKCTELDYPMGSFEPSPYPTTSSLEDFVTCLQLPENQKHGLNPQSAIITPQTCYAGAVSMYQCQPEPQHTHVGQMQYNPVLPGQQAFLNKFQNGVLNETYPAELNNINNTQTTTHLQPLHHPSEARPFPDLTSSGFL
The assay is described as follows: hAHR Nuclear Translocation Assay. In kind it is cell-based. The following applies: AhR-EGFP nuclear translocation in Jump-In T-REx HEK293 cells, 45 minutes incubation, read-out: Rel EC50. From the text: The purpose of this assay is to measure the ability of compounds to bind to, activate, and induce the translocation of AhR into the nucleus of a cell for transcription. Stable cell lines were established using Jump-InTM T-RExTM HEK293 Retargeting Kit (Life Technologies). Human AhR cDNA was cloned into the pJTI R4 CMV-TO EGFP vector. The EGFP was cloned to the C-terminal of AHR to form AhR-EGFP chimera. The pJTI R4 CMV-TO AhR-EGFP vector was transfected using FuGENE® HD into Jump-InTM T-RExTM HEK293 cells. Transfected cells were selected using 2.5 mg/ml G418 for 10 to 14 days, then expanded, harvested, and suspended in freeze media (FBS with 8% DMSO) at 2×10^7 cells/ml, and aliquots were stored in liquid nitrogen. One day before the assay date, cells were thawed and resuspended in DMEM with 5% FBS in the presence of 1 μg/ml Doxycycline and plated into ploy-L-Lysine coated […]-384 ULTRA Microplates (Perkin Elmer) at 12,000 to 15,000 cells per well and incubated at 37° C. and 5% CO2 overnight. On the assay date, compound was serially diluted (1:2) into 384-well nunc plates with DMSO using acoustic dispensing (ECHO®). The dose response was a 20-point curve. […] The culture media was damped and 25 μl of DMEM plus 0.1% BSA was added, then 25 μL of compound in DMEM plus 0.1% BSA was added into cell plates. Cells were incubated compounds at 37° C. and 5% CO2 for 45 minutes. The final DMSO concentration was 0.2%. The media was damped after 45 minutes incubation. The cells were fixed with 40 μl of cold MeOH (-20° C.) for 20 minutes. The MeOH was damped and 50 μL of DPBS containing 1 μg/mL Hochst was added into the cell plates. The intensity of EGFP was quantitated by using Opera PHENIX® or OPERETTA® high content image system (Perkin Elmer) with 20× Water Objective and five field per well. The ratio of EGFP fluorescent intensity in nuclear over cytosol was analyzed using a 4-parameter nonlinear logistic equation to determine the potency of AhR agonists.

Read-outs that look alike come from different tables or passages of the source. Where only a bound is given, the exact number is not on record here.

One may read the EC50 as the concentration at which the effect is half-maximal. `COc1ccccc1NC(=O)c1cc2c(n3cnnc13)CCC2C` (single isomer, unassigned) [Example 20, N-(2-methoxyphenyl)-6-methyl-7,8-dihydro-6H-cyclopenta[e][1,2,4] triazolo[4,3-a]pyridine-4-carboxamide]: where the note is “class symbols”, the EC50 is more than 50 nM.
On to `CC1CCc2c1cc(C(=O)Nc1ncc(Cl)cn1)c1nncn21` (single isomer, unassigned) [Example 47, N-(5-Chloropyrimidin-2-yl)-6-methyl-7,8-dihydro-6H-cyclopenta[e][1,2,4] triazolo[4,3-a]pyridine-4-carboxamide], for which the EC50 (class symbols) is 1 to 10 nM.
As to `CC1CCc2c1cc(C(=O)Nc1ccns1)c1nncn21` (single isomer, unassigned) [Example 38, N-(Isothiazol-5-yl)-6-methyl-7,8-dihydro-6H-cyclopenta[e][1,2,4] triazolo[4,3-a]pyridine-4-carboxamide], the EC50 (class symbols) lay within 1 to 10 nM.
As for `CC1CCc2c1cc(C(=O)Nc1ncccn1)c1nccn21` (single isomer, unassigned) [Example 11, 6-Methyl-N-(pyrimidin-2-yl)-7,8-dihydro-6H-cyclopenta[e]imidazo[1,2-a]pyridine-4-carboxamide], the EC50 (numeric values) turned out to be 1.58 nM.
With `CC1CCc2c1cc(C(=O)Nc1ccno1)c1nncn21` (single isomer, unassigned) [Example 44, N-(Isoxazol-5-yl)-6-methyl-7,8-dihydro-6H-cyclopenta[e][1,2,4] triazolo[4,3-a]pyridine-4-carboxamide], under “class symbols”, the EC50 was more than 50 nM.
On to `CC(C)C1CCc2c1cc(C(=O)Nc1ncc(F)cn1)c1nncn21` (single isomer, unassigned) [Example 59, N-(5-Fluoropyrimidin-2-yl)-6-isopropyl-7,8-dihydro-6H-cyclopenta[e][1,2,4] triazolo[4,3-a]pyridine-4-carboxamide], for which, for the setting “class symbols”, the EC50 was 10 to 50 nM.
In the case of `CC1CCc2c1cc(C(=O)Nc1ncco1)c1nncn21` (single isomer, unassigned) [Example 31, 6-Methyl-N-(oxazol-2-yl)-7,8-dihydro-6H-cyclopenta[e][1,2,4] triazolo[4,3-a]pyridine-4-carboxamide], the EC50 (class symbols) is 10 to 50 nM.
In the case of `COc1ccccc1NC(=O)c1cc2c(n3cnnc13)CCC2C` (single isomer, unassigned) [Example 21, N-(2-methoxyphenyl)-6-methyl-7,8-dihydro-6H-cyclopenta[e][1,2,4] triazolo[4,3-a]pyridine-4-carboxamide], the EC50 (class symbols) was more than 50 nM.
The same measure, in the same setting: the result for `O=C(Nc1ncc(F)cn1)c1cc2c(n3cnnc13)CCC2C1CC1` (single isomer, unassigned) [Example 66, 6-Cyclopropyl-N-(5-fluoropyrimidin-2-yl)-7,8-dihydro-6H-cyclopenta[e][1,2,4] triazolo[4,3-a]pyridine-4-carboxamide] reads 1 to 10 nM.
On to `CC1CCc2c1cc(C(=O)Nc1ncccn1)c1nncn21` (single isomer, unassigned) [Example 7, 6-Methyl-N-(pyrimidin-2-yl)-7,8-dihydro-6H-cyclopenta[e][1,2,4] triazolo[4,3-a]pyridine-4-carboxamide], for which the half-maximal effective concentration (EC50) (numeric values) was found to be 11.1 nM.
For `CC1CCc2c1cc(C(=O)Nc1ncco1)c1nncn21` (single isomer, unassigned) [Example 30, 6-Methyl-N-(oxazol-2-yl)-7,8-dihydro-6H-cyclopenta[e][1,2,4] triazolo[4,3-a]pyridine-4-carboxamide], the EC50 (class symbols) fell in the range of 10 to 50 nM.
As for `CCC(C)C1CCc2c1cc(C(=O)Nc1ncc(F)cn1)c1nncn21` (single isomer, unassigned) [Example 60, 6-(sec-butyl)-N-(5-Fluoropyrimidin-2-yl)-7,8-dihydro-6H-cyclopenta[e][1,2,4] triazolo[4,3-a]pyridine-4-carboxamide], the EC50 (class symbols) was 10 to 50 nM.
Consider `CC1CCc2c1cc(C(=O)Nc1ncc(Cl)cn1)c1nncn21` (single isomer, unassigned) [Example 46, N-(5-Chloropyrimidin-2-yl)-6-methyl-7,8-dihydro-6H-cyclopenta[e][1,2,4] triazolo[4,3-a]pyridine-4-carboxamide], for which, where the note is “class symbols”, the concentration for a half-maximal effect (EC50) lay within 1 to 10 nM.
Regarding `Cc1cnc(NC(=O)c2cc3c(n4cnnc24)CCC3C)nc1` (single isomer, unassigned) [Example 29, 6-Methyl-N-(5-methylpyrimidin-2-yl)-7,8-dihydro-6H-cyclopenta[e][1,2,4]tria zolo[4,3-a]pyridine-4-carboxamide], the EC50 (class symbols) is 10 to 50 nM.
In the case of `C[C@H]1CCc2c1cc(C(=O)Nc1ncc(F)cn1)c1nncn21` [Example 5, (S)-N-(5-Fluoropyrimidin-2-yl)-6-methyl-7,8-dihydro-6H-cyclopenta[e][1,2,4]triazolo [4,3-a]pyridine-4-carboxamide], for the setting “numeric values”, the concentration for a half-maximal effect (EC50) was determined as 5.79 nM.
On to `CC1CCc2c1cc(C(=O)Nc1ccns1)c1nncn21` (single isomer, unassigned) [Example 39, N-(Isothiazol-5-yl)-6-methyl-7,8-dihydro-6H-cyclopenta[e][1,2,4] triazolo[4,3-a]pyridine-4-carboxamide], for which the EC50 (class symbols) is 1 to 10 nM.
On to `CC1CCc2c1cc(C(=O)Nc1cnn(C)n1)c1nncn21` (single isomer, unassigned) [Example 62, 6-Methyl-N-(2-methyl-2H-1,2,3-triazol-4-yl)-7,8-dihydro-6H-cyclopenta[e][1,2,4] triazolo[4,3-a]pyridine-4-carboxamide], for which, where the note is “class symbols”, the EC50 lay within 10 to 50 nM.
For `CCCC1CCc2c1cc(C(=O)Nc1ncc(F)cn1)c1nncn21` (single isomer, unassigned) [Example 68, N-(5-Fluoropyrimidin-2-yl)-6-propyl-7,8-dihydro-6H-cyclopenta[e][1,2,4] triazolo[4,3-a]pyridine-4-carboxamide], the EC50 (class symbols) lay within 10 to 50 nM.
Consider `CC1CCc2c1cc(C(=O)Nc1cnn(C)n1)c1nncn21` (single isomer, unassigned) [Example 61, 6-Methyl-N-(2-methyl-2H-1,2,3-triazol-4-yl)-7,8-dihydro-6H-cyclopenta[e][1,2,4] triazolo[4,3-a]pyridine-4-carboxamide], for which the EC50 (class symbols) lay in the range of 1 to 10 nM.
On the same count and under the same terms, the result for `CC1CCc2c1cc(C(=O)Nc1ccon1)c1nncn21` (single isomer, unassigned) [Example 33] reads more than 50 nM; that for `COc1cnc(NC(=O)c2cc3c(n4cnnc24)CCC3C)nc1` (single isomer, unassigned) [Example 48, N-(5-Methoxypyrimidin-2-yl)-6-methyl-7,8-dihydro-6H-cyclopenta[e][1,2,4] triazolo[4,3-a]pyridine-4-carboxamide], 10 to 50 nM; that for `CC(C)C1CCc2c1cc(C(=O)Nc1ncc(F)cn1)c1nncn21` (single isomer, unassigned) [Example 58, N-(5-Fluoropyrimidin-2-yl)-6-isopropyl-7,8-dihydro-6H-cyclopenta[e][1,2,4] triazolo[4,3-a]pyridine-4-carboxamide], 1 to 10 nM.
With `CC1CCc2c1cc(C(=O)Nc1ccno1)c1nncn21` (single isomer, unassigned) [Example 45, N-(Isoxazol-5-yl)-6-methyl-7,8-dihydro-6H-cyclopenta[e][1,2,4] triazolo[4,3-a]pyridine-4-carboxamide], for the setting “class symbols”, the EC50 lay in the range of 10 to 50 nM.

For the origin of these results see US20240199608A1 (Eli Lilly and Company, priority 2022, published 2024).
